The results in this text go back to patent US20230365592A1 (Agios Pharmaceuticals, Inc., priority 2022, published 2023).

Where only a bound is given, the exact number is not on record here.

One assay concerns the target T1, human PAH with the R408W mutation (Homo sapiens, UniProt P00439, R408W).
T1 construct: expressed in transfected cells
T1 sequence (P00439 1-452 R408W): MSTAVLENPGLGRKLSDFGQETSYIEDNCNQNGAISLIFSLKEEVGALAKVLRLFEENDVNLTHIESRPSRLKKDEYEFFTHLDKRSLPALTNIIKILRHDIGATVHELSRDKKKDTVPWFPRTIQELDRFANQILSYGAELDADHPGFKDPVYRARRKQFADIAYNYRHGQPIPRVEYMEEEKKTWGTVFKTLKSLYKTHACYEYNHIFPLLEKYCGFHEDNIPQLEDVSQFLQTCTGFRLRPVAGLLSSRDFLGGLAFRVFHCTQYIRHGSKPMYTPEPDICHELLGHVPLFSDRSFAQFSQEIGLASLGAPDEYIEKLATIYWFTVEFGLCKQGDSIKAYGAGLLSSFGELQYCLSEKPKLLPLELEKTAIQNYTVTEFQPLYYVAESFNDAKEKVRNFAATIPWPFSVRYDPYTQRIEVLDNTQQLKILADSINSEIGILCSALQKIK
Put plainly: Cell Based Phenylalanine Flux Assay.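 Further: after compound treatment, cells received sepiapterin plus isotope-labelled Phenylalanine for 4 hours, then labelled Tyrosine in the medium was quantified, 10-point 2-fold dilution series run in duplicate.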 As to conditions: A375 cells expressing R408W PAH; 24 hrs with compound, then 20 µM sepiapterin and 800 µM 13C9,15N-Phenylalanine for 4 hours; 13C-Tyrosine by LC-MS; average where tested multiple times; read-out: AC50.
In the case of `O=C(c1nnc(-c2ccccn2)o1)N1CCc2[nH]cnc2C1c1cc2cc(F)ccn2n1` (stereo not drawn), the AC50 fell in the range of 1000 to 5000 nM.
Same read-out and setting: as for `Cc1nc(C(C)(C)O)oc1C(=O)N1CCc2[nH]cnc2[C@@H]1c1cc2cccc(C(F)(F)F)n2n1` (single isomer, unassigned), the figure is 1000 to 5000 nM.
On to `O=C(c1cnco1)N1CCc2[nH]cnc2C1c1cc2ccccn2n1` (stereo not drawn), for which the AC50 lay in the range of 1000 to 5000 nM.
Regarding `c1cncc(-c2nnc(N3CCc4[nH]cnc4C3c3cc4ccccn4n3)o2)c1` (stereo not drawn), the AC50 was in the range of 1000 to 5000 nM.
On the same count and under the same terms, in the case of `O=C(c1nnc(-c2cc[nH]n2)o1)N1CCc2[nH]cnc2[C@H]1c1cc2ccccn2n1` (single isomer, unassigned) it was 1000 to 5000 nM; in that of `COCc1nnc(C(=O)N2CCc3[nH]cnc3C2c2cc3ccccn3n2)o1` (stereo not drawn), 1000 to 5000 nM; in that of `CC(C)c1nnc(N2CCc3[nH]cnc3C2c2cc3c(C(C)C)cccn3n2)o1` (stereo not drawn), greater than 5000 nM.

Still in this assay, the particulars now being: A375 cells expressing human PAH R408W; 24 hrs compound incubation; 13C-Tyrosine by LC-MS; average where tested multiple times; read-out: AC50.
On to `Cc1cccn2nc([C@H]3c4nc[nH]c4CCN3C(=O)c3nnc(-c4cncnc4)o3)cc12` [Example 1973, (R)-(4-(4-methylpyrazolo[1,5-a]pyridin-2-yl)-1,4,6,7-tetrahydro-5H-imidazo[4,5-c]pyridin-5-yl)(5-(pyrimidin-5-yl)-1,3,4-oxadiazol-2-yl)methanone], for which the concentration at half-maximal activity (AC50) is greater than 5000 nM.
The same measure, in the same setting: in the case of `Cn1ccc(-c2ncc(C(=O)N3CCc4[nH]cnc4[C@@H]3c3cc4c(F)cccn4n3)o2)n1` [Example 2504, (R)-(4-(4-fluoropyrazolo[1,5-a]pyridin-2-yl)-1,4,6,7-tetrahydro-5H-imidazo[4,5-c]pyridin-5-yl)(2-(1-methyl-1H-pyrazol-3-yl)oxazol-5-yl)methanone] it was greater than 5000 nM.
`Cc1cccc2cc([C@@H]3c4nc[nH]c4CCN3c3nnc(-c4c(F)cccc4F)o3)nn12` [Example 2091, (S)-2-(2,6-difluorophenyl)-5-(4-(7-methylpyrazolo[1,5-a]pyridin-2-yl)-1,4,6,7-tetrahydro-5H-imidazo[4,5-c]pyridin-5-yl)-1,3,4-oxadiazole]: the AC50 was less than 500 nM.
On the same count and under the same terms, as for `Fc1cccn2nc([C@@H]3c4nc[nH]c4CCN3c3nnc(C4CC4)o3)cc12` [Example 2433, (S)-2-cyclopropyl-5-(4-(4-fluoropyrazolo[1,5-a]pyridin-2-yl)-6,7-dihydro-1H-imidazo[4,5-c]pyridin-5(4H)-yl)-1,3,4-oxadiazole], the figure is 1000 to 5000 nM; as for `Fc1cccn2nc([C@H]3c4nc[nH]c4CCN3c3ccccc3)cc12` [Example 2312, (R)-4-(4-fluoropyrazolo[1,5-a]pyridin-2-yl)-5-phenyl-4,5,6,7-tetrahydro-1H-imidazo[4,5-c]pyridine], 1000 to 5000 nM; as for `Fc1cccc(F)c1-c1nnc(N2CCc3[nH]cnc3[C@@H]2c2cc3cccc(C(F)(F)F)n3n2)o1` [Example 2132, (R)-2-(2,6-difluorophenyl)-5-(4-(7-(trifluoromethyl)pyrazolo[1,5-a]pyridin-2-yl)-1,4,6,7-tetrahydro-5H-imidazo[4,5-c]pyridin-5-yl)-1,3,4-oxadiazole], 1000 to 5000 nM.
Regarding `O=C(c1nnc(C2CC2)o1)N1CCc2[nH]cnc2[C@H]1c1cc2c(C3CC3)cccn2n1` [Example 1838, (S)-(5-cyclopropyl-1,3,4-oxadiazol-2-yl)(4-(4-cyclopropylpyrazolo[1,5-a]pyridin-2-yl)-1,4,6,7-tetrahydro-5H-imidazo[4,5-c]pyridin-5-yl)methanone], the AC50 was less than 500 nM.
Same read-out and setting: as for `c1cnc(N2CCc3[nH]cnc3[C@H]2c2cc3c(C4CC4)cccn3n2)nc1` [Example 2172, (S)-4-(4-cyclopropylpyrazolo[1,5-a]pyridin-2-yl)-5-(pyrimidin-2-yl)-4,5,6,7-tetrahydro-1H-imidazo[4,5-c]pyridine], the figure is less than 500 nM; as for `O=C([C@H]1CC1(F)F)N1CCc2[nH]cnc2[C@H]1c1cc2c(F)cccn2n1` [Example 2223, ((R)-2,2-difluorocyclopropyl)((S)-4-(4-fluoropyrazolo[1,5-a]pyridin-2-yl)-1,4,6,7-tetrahydro-5H-imidazo[4,5-c]pyridin-5-yl)methanone], 1000 to 5000 nM.

Still in this assay, the particulars now being: A375 cells expressing human R408W PAH; 24 hrs compound incubation; 13C-Tyrosine by LC-MS; average where tested multiple times; read-out: AC50.
For `O=C(c1cnn2cc(N3CCOCC3)ccc12)N1CCc2[nH]cnc2[C@H]1c1cc2c(C(F)(F)F)cccn2n1` [Example 1614, (S)-(6-morpholinopyrazolo[1,5-a]pyridin-3-yl)(4-(4-(trifluoromethyl)pyrazolo[1,5-a]pyridin-2-yl)-6,7-dihydro-1H-imidazo[4,5-c]pyridin-5(4H)-yl)methanone], the half-maximal activity concentration (AC50) lay in the range of 500 to 1000 nM.
The same measure, in the same setting: as for `FC(F)(F)c1cnc(N2CCc3[nH]cnc3[C@@H]2c2cc3c(Cl)cccn3n2)nc1` [Example 1781, (R)-4-(4-chloropyrazolo[1,5-a]pyridin-2-yl)-5-(5-(trifluoromethyl)pyrimidin-2-yl)-4,5,6,7-tetrahydro-1H-imidazo[4,5-c]pyridine], the figure is greater than 5000 nM; as for `Cn1cc(-c2nnc(C(=O)N3CCc4[nH]cnc4[C@H]3c3cc4c(C(F)F)cccn4n3)o2)cn1` [Example 1316, (S)-(4-(4-(difluoromethyl)pyrazolo[1,5-a]pyridin-2-yl)-6,7-dihydro-1H-imidazo[4,5-c]pyridin-5(4H)-yl)(5-(1-methyl-1H-pyrazol-4-yl)-1,3,4-oxadiazol-2-yl)methanone], less than 500 nM.
As for `O=C(c1nnc(-c2ccn(C(F)(F)F)n2)o1)N1CCc2[nH]cnc2[C@@H]1c1cc2ccccn2n1` [Example 1507, (R)-(4-(pyrazolo[1,5-a]pyridin-2-yl)-6,7-dihydro-1H-imidazo[4,5-c]pyridin-5(4H)-yl)(5-(1-(trifluoromethyl)-1H-pyrazol-3-yl)-1,3,4-oxadiazol-2-yl)methanone], the half-maximal activity concentration (AC50) was greater than 5000 nM.
On the same count and under the same terms, as for `Cc1cccn2nc([C@@H]3c4nc[nH]c4CCN3C(=O)c3nc(C(F)(F)F)nn3C)cc12` [Example 1056, (S)-(1-methyl-3-(trifluoromethyl)-1H-1,2,4-triazol-5-yl)(4-(4-methylpyrazolo[1,5-a]pyridin-2-yl)-6,7-dihydro-1H-imidazo[4,5-c]pyridin-5(4H)-yl)methanone], the figure is less than 500 nM.
On to `Cn1ncnc1C(=O)N1CCc2[nH]cnc2[C@@H]1c1cc2c(Cl)cccn2n1` [Example 1051, (R)-(4-(4-chloropyrazolo[1,5-a]pyridin-2-yl)-6,7-dihydro-1H-imidazo[4,5-c]pyridin-5(4H)-yl)(1-methyl-1H-1,2,4-triazol-5-yl)methanone], for which the AC50 was greater than 5000 nM.
`Cc1c(-c2nnc(C(=O)N3CCc4[nH]cnc4[C@@H]3c3cc4c(C(F)(F)F)cccn4n3)o2)cnn1C` [Example 1205, (R)-(5-(1,5-dimethyl-1H-pyrazol-4-yl)-1,3,4-oxadiazol-2-yl)(4-(4-(trifluoromethyl)pyrazolo[1,5-a]pyridin-2-yl)-6,7-dihydro-1H-imidazo[4,5-c]pyridin-5(4H)-yl)methanone]: the AC50 is greater than 5000 nM.
For the compound `O=C(c1oc(C2(O)CC2)nc1C(F)F)N1CCc2[nH]cnc2[C@H]1c1cc2c(C(F)(F)F)cccn2n1` [Example 1222, (S)-(4-(difluoromethyl)-2-(1-hydroxycyclopropyl)oxazol-5-yl)(4-(4-(trifluoromethyl)pyrazolo[1,5-a]pyridin-2-yl)-6,7-dihydro-1H-imidazo[4,5-c]pyridin-5(4H)-yl)methanone], the AC50 was less than 500 nM.

The AC50 is the concentration giving half of the maximal activity seen.
